Values quoted from earlier work in patent publication US8512794B2, “Oleate ester phytosterol compositions” (Perlman Consulting, LLC, priority 2010, dated 2013).

Tested on: humans

Row | SMILES | lowering of serum cholesterol (12-18 g per day in divided doses, males with atherosclerosis (Faquhar et al. 1956)) | decrease of plasma cholesterol level (9-18 grams per day, coarse powdered form)
1 | CC[C@H](CC[C@@H](C)[C@H]1CC[C@H]2[C@@H]3CC=C4C[C@@H](O)CC[C@]4(C)[C@H]3CC[C@]12C)C(C)C [beta sitosterol] | 15-20% | –
2 | CC[C@H](CC[C@@H](C)[C@H]1CC[C@H]2[C@@H]3CC=C4C[C@@H](O)CC[C@]4(C)[C@H]3CC[C@]12C)C(C)C [sitosterol] | – | approximately 15%
